The values below come from patent US20250353891A1 (MEDIMMUNE LIMITED, priority 2022, published 2025).

Starred links: 1 amine or outer side, 2 acyl side, 3 side chain; linkers in the order of their positions; H or OH if unused. Non-standard residues stand in square brackets, D forms with d. Residues, ends and D or L forms follow the SMILES beside them. Groups on a side chain read outwards from the residue. *: point of attachment. C20 diacid = O=C(O)CCCCCCCCCCCCCCCCCCC(=O)*; C18 diacid = O=C(O)CCCCCCCCCCCCCCCCC(=O)*; γGlu = O=C(O)[C@H](CCC(=O)[*:2])N[*:1]; αMeF = C[C@](N)(Cc1ccccc1)C(=O)O; AEEA = NCCOCCOCC(=O)O; Aib = CC(C)(N)C(=O)O

In experiment [1] the target is human GLP-1 receptor (hGLP-1R) (Homo sapiens, UniProt P43220). As to the kind of experiment: cAMP production (HTRF) in CHO cells expressing hGLP-1R. The arrangement: expressed in transfected cells. The conditions noted are these: for % Relative Potency Ratio: % GLP-1R activity relative to GLP-1 / % GlucR activity relative to glucagon; for EC50: cAMP, CHO cells, 0.1% BSA, geometric mean, read-out: hGLP-1R EC50. The format is cell-based. The method, boiled down: (§1)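 Read-out: HTRF cAMP (anti-cAMP cryptate donor, cAMP-d2 acceptor in conjugate/lysis buffer), converted to % Delta F and fitted by 4-parameter logistic for EC50. Cell densities were 1×10^5 cells/mL (hGLP-1R) or 2×10^5 cells/mL (hGCGR). Stimulation lasted 30 min at room temperature.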
Chain of human GLP-1 receptor (hGLP-1R) (P43220 24-463): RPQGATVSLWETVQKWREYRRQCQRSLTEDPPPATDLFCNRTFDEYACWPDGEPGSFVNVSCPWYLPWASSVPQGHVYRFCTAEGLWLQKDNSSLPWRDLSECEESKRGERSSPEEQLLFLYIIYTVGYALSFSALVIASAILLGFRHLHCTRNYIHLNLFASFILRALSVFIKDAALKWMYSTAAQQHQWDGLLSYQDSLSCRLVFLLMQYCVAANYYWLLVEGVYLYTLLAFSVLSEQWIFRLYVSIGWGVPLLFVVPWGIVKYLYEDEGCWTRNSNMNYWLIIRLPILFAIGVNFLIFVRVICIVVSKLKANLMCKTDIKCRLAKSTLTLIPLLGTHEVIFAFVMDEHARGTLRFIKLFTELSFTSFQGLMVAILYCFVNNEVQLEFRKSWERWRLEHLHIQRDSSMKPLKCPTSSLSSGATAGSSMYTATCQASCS

Experiment [2] has as its target human glucagon receptor (hGCGR) (Homo sapiens, UniProt P47871). As to the kind of experiment: cAMP production (HTRF) in CHO cells expressing hGCGR. The conditions noted are these: cAMP, CHO cells, 0.1% BSA, geometric mean; read-out: hGluc-R EC50. Format: cell-based. The arrangement: expressed in transfected cells. The method, boiled down: as §1
On the technique in general: Cyclic AMP is a second messenger, typically raised through Gs and lowered through Gi signalling.

Chain of human glucagon receptor (hGCGR) (P47871 26-477): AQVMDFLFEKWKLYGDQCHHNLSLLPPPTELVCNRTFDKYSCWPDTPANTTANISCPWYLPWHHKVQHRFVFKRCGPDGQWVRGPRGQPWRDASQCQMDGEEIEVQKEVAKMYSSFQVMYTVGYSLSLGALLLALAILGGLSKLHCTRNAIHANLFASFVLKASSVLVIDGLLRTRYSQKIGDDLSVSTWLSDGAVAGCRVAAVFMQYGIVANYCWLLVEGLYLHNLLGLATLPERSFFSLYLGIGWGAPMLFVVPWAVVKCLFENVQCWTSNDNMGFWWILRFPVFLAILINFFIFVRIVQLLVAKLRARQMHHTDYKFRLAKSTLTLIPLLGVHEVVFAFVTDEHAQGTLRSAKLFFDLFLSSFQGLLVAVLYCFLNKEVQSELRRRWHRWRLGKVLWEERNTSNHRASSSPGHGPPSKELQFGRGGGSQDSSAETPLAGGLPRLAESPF

The term EC50 denotes the concentration that produces a half-maximal response. With `CC[C@H](C)[C@H](NC(=O)C(C)(C)NC(=O)[C@H](CCCCNC(=O)COCCOCCNC(=O)COCCOCCNC(=O)CC[C@H](NC(=O)CC[C@H](NC(=O)CCCCCCCCCCCCCCCCC(=O)O)C(=O)O)C(=O)O)NC(=O)[C@@H](NC(=O)[C@](C)(Cc1ccccc1)NC(=O)[C@H](CC(=O)O)NC(=O)[C@H](CCC(N)=O)NC(=O)[C@H](C)NC(=O)[C@H](C)NC(=O)[C@H](CCCNC(=N)N)NC(=O)[C@H](CO)NC(=O)[C@H](CC(=O)O)NC(=O)[C@H](CC(C)C)NC(=O)[C@](C)(Cc1ccccc1)NC(=O)[C@H](CCCCN)NC(=O)[C@H](CO)NC(=O)[C@@H](NC(=O)[C@H](CC(=O)O)NC(=O)[C@H](CO)NC(=O)[C@@H](NC(=O)[C@](C)(Cc1ccccc1)NC(=O)[C@H](CO)NC(=O)CNC(=O)[C@H](Cc1c[nH]cn1)NC(=O)C(C)(C)NC(=O)[C@@H](N)Cc1c[nH]cn1)[C@@H](C)O)C(C)C)C(C)C)C(=O)N[C@@H](C)C(=O)N[C@@H](CC(N)=O)C(=O)N[C@H](C(=O)NCC(=O)NCC(N)=O)[C@@H](C)O` [Peptide 373] (H-H[Aib]HGS[αMeF]TSDVSK[αMeF]LDSRAAQD[αMeF]VK([AEEA-AEEA-γGlu-γGlu-C18 diacid])[Aib]IANTGG-NH2; N-terminus assumed), in experiment [1], the “% Relative Potency Ratio” value came to 7.2 and the half-maximal effective concentration (EC50) worked out at 0.0667 nM. Further, the half-maximal effective concentration (EC50) in experiment [2] worked out at 0.242 nM.
`CC[C@H](C)[C@H](NC(=O)[C@H](Cc1c[nH]c2ccccc12)NC(=O)[C@H](CCCCNC(=O)COCCOCCNC(=O)COCCOCCNC(=O)CC[C@H](NC(=O)CC[C@H](NC(=O)CCCCCCCCCCCCCCCCCCC(=O)O)C(=O)O)C(=O)O)NC(=O)[C@@H](NC(=O)[C@](C)(Cc1ccccc1)NC(=O)[C@H](CC(=O)O)NC(=O)[C@H](CCC(N)=O)NC(=O)[C@H](C)NC(=O)[C@H](C)NC(=O)[C@H](CCCNC(=N)N)NC(=O)[C@H](CO)NC(=O)[C@H](CC(=O)O)NC(=O)[C@H](CC(C)C)NC(=O)[C@](C)(Cc1ccccc1)NC(=O)[C@H](CCCCN)NC(=O)[C@H](CO)NC(=O)[C@@H](NC(=O)[C@H](CC(=O)O)NC(=O)[C@H](CO)NC(=O)[C@@H](NC(=O)[C@](C)(Cc1ccccc1)NC(=O)[C@H](CO)NC(=O)CNC(=O)[C@H](Cc1c[nH]cn1)NC(=O)C(C)(C)NC(=O)[C@@H](N)Cc1c[nH]cn1)[C@@H](C)O)C(C)C)C(C)C)C(=O)N[C@@H](C)C(=O)N[C@@H](CC(N)=O)C(=O)N[C@H](C(N)=O)[C@@H](C)O` [Peptide 374] (H-H[Aib]HGS[αMeF]TSDVSK[αMeF]LDSRAAQD[αMeF]VK([AEEA-AEEA-γGlu-γGlu-C20 diacid])WIANT-NH2; N-terminus assumed): in experiment [1], the “% Relative Potency Ratio” value is 1.2 and the concentration for a half-maximal effect (EC50) is 0.434 nM. Also, in experiment [2], the EC50 came out at 0.26 nM.
With `CC[C@H](C)[C@H](NC(=O)[C@H](Cc1c[nH]c2ccccc12)NC(=O)[C@H](CCCCNC(=O)COCCOCCNC(=O)COCCOCCNC(=O)CC[C@H](NC(=O)CC[C@H](NC(=O)CCCCCCCCCCCCCCCCCCC(=O)O)C(=O)O)C(=O)O)NC(=O)[C@@H](NC(=O)[C@H](Cc1ccccc1)NC(=O)[C@H](CC(=O)O)NC(=O)[C@H](CCC(N)=O)NC(=O)[C@H](C)NC(=O)[C@H](C)NC(=O)[C@H](CCCNC(=N)N)NC(=O)[C@H](CO)NC(=O)[C@H](CC(=O)O)NC(=O)[C@H](CC(C)C)NC(=O)[C@](C)(Cc1ccccc1)NC(=O)[C@H](CCCCN)NC(=O)[C@H](CO)NC(=O)[C@@H](NC(=O)[C@H](CC(=O)O)NC(=O)[C@H](CO)NC(=O)[C@@H](NC(=O)[C@](C)(Cc1ccccc1)NC(=O)[C@H](CO)NC(=O)CNC(=O)[C@H](Cc1c[nH]cn1)NC(=O)C(C)(C)NC(=O)[C@@H](N)Cc1c[nH]cn1)[C@@H](C)O)C(C)C)C(C)C)C(=O)N[C@@H](C)C(=O)N[C@@H](CC(N)=O)C(=O)N[C@H](C(N)=O)[C@@H](C)O` [Peptide 377] (H-H[Aib]HGS[αMeF]TSDVSK[αMeF]LDSRAAQDFVK([AEEA-AEEA-γGlu-γGlu-C20 diacid])WIANT-NH2; N-terminus assumed), in experiment [1], the “% Relative Potency Ratio” value was 2.5 and the EC50 worked out at 0.15 nM. For the same compound, in experiment [2], the EC50 was 0.19 nM.
On the same counts, the results for `CC[C@H](C)[C@H](NC(=O)[C@H](CO)NC(=O)[C@H](CCCCNC(=O)COCCOCCNC(=O)COCCOCCNC(=O)CC[C@H](NC(=O)CC[C@H](NC(=O)CCCCCCCCCCCCCCCCC(=O)O)C(=O)O)C(=O)O)NC(=O)[C@@H](NC(=O)[C@](C)(Cc1ccccc1)NC(=O)[C@H](CC(=O)O)NC(=O)[C@H](CCC(N)=O)NC(=O)[C@H](C)NC(=O)[C@H](C)NC(=O)[C@H](CCCNC(=N)N)NC(=O)[C@H](CO)NC(=O)[C@H](CC(=O)O)NC(=O)[C@H](CC(C)C)NC(=O)[C@](C)(Cc1ccccc1)NC(=O)[C@H](CCCCN)NC(=O)[C@H](CO)NC(=O)[C@@H](NC(=O)[C@H](CC(=O)O)NC(=O)[C@H](CO)NC(=O)[C@@H](NC(=O)[C@](C)(Cc1ccccc1)NC(=O)[C@H](CO)NC(=O)CNC(=O)[C@H](Cc1c[nH]cn1)NC(=O)C(C)(C)NC(=O)[C@@H](N)Cc1c[nH]cn1)[C@@H](C)O)C(C)C)C(C)C)C(=O)N[C@@H](C)C(=O)N[C@@H](CC(N)=O)C(=O)N[C@H](C(N)=O)[C@@H](C)O` [Peptide 378] (H-H[Aib]HGS[αMeF]TSDVSK[αMeF]LDSRAAQD[αMeF]VK([AEEA-AEEA-γGlu-γGlu-C18 diacid])SIANT-NH2; N-terminus assumed) are 2.0, 0.159 nM and 0.158 nM.
For `CC[C@H](C)[C@H](NC(=O)[C@H](CO)NC(=O)[C@H](CCCCNC(=O)COCCOCCNC(=O)COCCOCCNC(=O)CC[C@H](NC(=O)CCCCCCCCCCCCCCCCC(=O)O)C(=O)O)NC(=O)[C@@H](NC(=O)[C@](C)(Cc1ccccc1)NC(=O)[C@H](CC(=O)O)NC(=O)[C@H](CCC(N)=O)NC(=O)[C@H](C)NC(=O)[C@H](C)NC(=O)[C@H](CCCNC(=N)N)NC(=O)[C@H](CO)NC(=O)[C@H](CC(=O)O)NC(=O)[C@H](CC(C)C)NC(=O)[C@](C)(Cc1ccccc1)NC(=O)[C@H](CCCCN)NC(=O)[C@H](CO)NC(=O)[C@@H](NC(=O)[C@H](CC(=O)O)NC(=O)[C@H](CO)NC(=O)[C@@H](NC(=O)[C@](C)(Cc1ccccc1)NC(=O)[C@H](CO)NC(=O)CNC(=O)[C@H](Cc1c[nH]cn1)NC(=O)C(C)(C)NC(=O)[C@@H](N)Cc1c[nH]cn1)[C@@H](C)O)C(C)C)C(C)C)C(=O)N[C@@H](C)C(=O)N[C@@H](CC(N)=O)C(=O)N[C@H](C(N)=O)[C@@H](C)O` [Peptide 379] (H-H[Aib]HGS[αMeF]TSDVSK[αMeF]LDSRAAQD[αMeF]VK([AEEA-AEEA-γGlu-C18 diacid])SIANT-NH2), in that order: 2.4, 0.0718 nM and 0.0857 nM.
On to `CC[C@H](C)[C@H](NC(=O)[C@H](CO)NC(=O)[C@H](CCCCNC(=O)COCCOCCNC(=O)COCCOCCNC(=O)CC[C@H](NC(=O)CC[C@H](NC(=O)CCCCCCCCCCCCCCCCC(=O)O)C(=O)O)C(=O)O)NC(=O)[C@@H](NC(=O)[C@H](Cc1ccccc1)NC(=O)[C@H](CC(=O)O)NC(=O)[C@H](CCC(N)=O)NC(=O)[C@H](C)NC(=O)[C@H](C)NC(=O)[C@H](CCCNC(=N)N)NC(=O)[C@H](CO)NC(=O)[C@H](CC(=O)O)NC(=O)[C@H](CC(C)C)NC(=O)[C@](C)(Cc1ccccc1)NC(=O)[C@H](CCCCN)NC(=O)[C@H](CO)NC(=O)[C@@H](NC(=O)[C@H](CC(=O)O)NC(=O)[C@H](CO)NC(=O)[C@@H](NC(=O)[C@](C)(Cc1ccccc1)NC(=O)[C@H](CO)NC(=O)CNC(=O)[C@H](Cc1c[nH]cn1)NC(=O)C(C)(C)NC(=O)[C@@H](N)Cc1c[nH]cn1)[C@@H](C)O)C(C)C)C(C)C)C(=O)N[C@@H](C)C(=O)N[C@@H](CC(N)=O)C(=O)N[C@H](C(=O)NCC(=O)NCC(N)=O)[C@@H](C)O` [Peptide 381] (H-H[Aib]HGS[αMeF]TSDVSK[αMeF]LDSRAAQDFVK([AEEA-AEEA-γGlu-γGlu-C18 diacid])SIANTGG-NH2; N-terminus assumed), for which, in experiment [1], the “% Relative Potency Ratio” value amounted to 14.9 and the concentration for a half-maximal effect (EC50) was 0.174 nM. For the same compound, the EC50 in experiment [2] was 1.31 nM.
As to `CC[C@H](C)[C@H](NC(=O)[C@H](CO)NC(=O)[C@H](CCCCNC(=O)COCCOCCNC(=O)COCCOCCNC(=O)CC[C@H](NC(=O)CC[C@H](NC(=O)CCCCCCCCCCCCCCCCC(=O)O)C(=O)O)C(=O)O)NC(=O)[C@@H](NC(=O)[C@H](Cc1ccccc1)NC(=O)[C@H](CC(=O)O)NC(=O)[C@H](CCC(N)=O)NC(=O)[C@H](C)NC(=O)C(C)(C)NC(=O)[C@H](CCCNC(=N)N)NC(=O)[C@H](CO)NC(=O)[C@H](CC(=O)O)NC(=O)[C@H](CC(C)C)NC(=O)[C@](C)(Cc1ccccc1)NC(=O)[C@H](CCCCN)NC(=O)[C@H](CO)NC(=O)[C@@H](NC(=O)[C@H](CC(=O)O)NC(=O)[C@H](CO)NC(=O)[C@@H](NC(=O)[C@](C)(Cc1ccccc1)NC(=O)[C@H](CO)NC(=O)CNC(=O)[C@H](Cc1c[nH]cn1)NC(=O)C(C)(C)NC(=O)[C@@H](N)Cc1c[nH]cn1)[C@@H](C)O)C(C)C)C(C)C)C(=O)N[C@@H](C)C(=O)N[C@@H](CC(N)=O)C(=O)N[C@H](C(=O)NCC(=O)NCC(N)=O)[C@@H](C)O` [Peptide 382, H(Aib)HGS(αMePhe)TSDVSK(αMePhe)LDSR(Aib)AQDFVK(O2OC-O2OC-γE-γE-C18diacid)24SIANTGG-amide] (H-H[Aib]HGS[αMeF]TSDVSK[αMeF]LDSR[Aib]AQDFVK([AEEA-AEEA-γGlu-γGlu-C18 diacid])SIANTGG-NH2; N-terminus assumed), in experiment [1], the “% Relative Potency Ratio” value worked out at 11.6 and the EC50 came to 0.056 nM. Also, in experiment [2], the 50% effective concentration (EC50) amounted to 0.329 nM.
